Assay results as given in patent US11105813B2, “Method for target protein identification using thermal stability shift-based fluorescence difference in two-dimensional gel electrophoresis” (priority 2016, dated 2021).

Columns and labels:
PKCα [1] = biological target: T1, PKCα (Homo sapiens, UniProt P17252); experiment: Translocation of PKCα between soluble and insoluble fraction (western blot); type: cell-based; conditions: lysis buffer without a mild detergent
T1 construct: Jurkat cell was used for bryostatin 1; endogenous in cells; host or cells: Jurkat clone E6-1

PKCα [2] = biological target: T1, PKCα; experiment: CETSA and isothermal dose-response, PKCα; type: cell-based; conditions: Jurkat cells, 48° C.
Method: HEK293T cells were harvested with trypsin/EDTA solution and resuspended in a conical tube before compound treatment. […] After the compound treatment, cells were aliquoted, heated to a range of temperature for 3 min, and cooled to 25° C. for 3 min. The heated cells were harvested, washed with PBS, and resuspended with lysis buffer (PBS supplemented with protease inhibitor cocktail). The cell suspension was freeze-thawed three times with liquid nitrogen for cell lysis. Soluble fraction was separated from the cell lysate following centrifugation at 20,000 g for 20 min at 4° C. Procedures for isothermal dose-response (ITDR) analysis was identical with the above-mentioned procedures except that cells were treated with various compound concentrations and heated at a fixed temperature.
Western blot—The soluble fraction was mixed with 5×Laemmli buffer followed by heating at 95° C. for 5 min. Proteins were separated by SDS-PAGE and transferred to PVDF membranes. […] The membranes were developed with Amersham ECL prime western blotting detection reagent [GE Healthcare], and detected by ChemiDoc [Bio-Rad]. The relative band intensities to 37° C. was calculated within each of drug-treated group and control group each for the CETSA curves. For ITDR curves, the relative band intensities to DMSO group was calculated. […]

NPM = biological target: T2, NPM (Oryctolagus cuniculus, UniProt G1T0N4); experiment: Nucleophosmin depletion for functional validation (in vitro translation); type: biochemical; conditions: 10 μM of hordenine, 30° C. for 1 h
T2 construct: incubated with the in vitro translation system to scavenge NPM; tissue Promega; host or cells: TNT Quick Master Mix (reticulocyte lysate, own knowledge)
T2 sequence (G1T0N4 1-294): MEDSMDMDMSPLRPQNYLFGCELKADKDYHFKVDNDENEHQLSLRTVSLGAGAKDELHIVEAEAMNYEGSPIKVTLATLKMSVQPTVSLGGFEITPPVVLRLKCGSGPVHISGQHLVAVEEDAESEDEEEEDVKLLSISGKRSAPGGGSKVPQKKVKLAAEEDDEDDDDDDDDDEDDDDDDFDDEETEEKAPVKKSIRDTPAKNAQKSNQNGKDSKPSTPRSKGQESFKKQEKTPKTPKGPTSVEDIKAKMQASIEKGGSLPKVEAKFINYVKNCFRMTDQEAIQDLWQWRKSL
Method: (§1) In vitro protein translation—TNT quick coupled transcription/translation system [Promega] was used for in vitro translation. TNT Quick Master Mix and T7 luciferase control DNA were mixed according to the manufacturer's protocol, and incubated with compounds at 30° C. for 1 h. After the addition of Luciferase assay reagent [Promega], luminescence from the control luciferase product was read by Synergy HT [BioTek] to measure the effect of compounds on protein translation.
Nucleophosmin depletion for functional validation—Protein G sepharose beads [Sigma] were washed with PBS and incubated with anti-NPM antibody at 4° C. for 2 h. Unbound antibodies were washed away. The anti-NPM bound Protein G beads were mixed with TNT Quick Master Mix and incubated at 4° C. for 2 h. The beads were removed by centrifugation, and the supernatant was incubated with T7 luciferase control DNA and 10 μM of hordenine at 30° C. for 1 h. Luminescence was read after the addition of Luciferase assay reagent.

[3] = system: translation of the luciferase reporter gene; experiment: In vitro protein translation (luciferase reporter); type: biochemical; conditions: 30° C. for 1 h
Method: as §1

[4] = biological target: T3, elongation factor 1-delta (EEF1D) (Homo sapiens, UniProt P29692); experiment: CETSA, EEF1D; type: cell-based; conditions: HEK293T cells
T3 construct: hordenine with HEK293T cells at 20 μM for 3 h; endogenous in cells; host or cells: HEK293T
T3 sequence (P29692 1-281): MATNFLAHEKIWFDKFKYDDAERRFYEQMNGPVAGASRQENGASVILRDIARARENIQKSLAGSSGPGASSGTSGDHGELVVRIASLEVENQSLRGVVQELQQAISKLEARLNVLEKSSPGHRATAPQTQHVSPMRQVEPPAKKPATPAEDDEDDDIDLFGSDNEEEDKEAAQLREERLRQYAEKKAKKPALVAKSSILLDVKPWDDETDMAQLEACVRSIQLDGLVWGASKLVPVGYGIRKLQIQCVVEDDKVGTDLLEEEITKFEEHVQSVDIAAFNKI
Method: (§2) Western blot—The soluble fraction was mixed with 5×Laemmli buffer followed by heating at 95° C. for 5 min. Proteins were separated by SDS-PAGE and transferred to PVDF membranes. The membranes were in tris-buffered saline with Tween-20 (TBST) including 2% BSA for 1 h at 4° C., and incubated with primary antibodies (anti-DHFR [ab133546, abcam], anti-TYMS [3766, Cell signaling], anti-PKCα [2056, Cell signaling], anti-PKCβI [ab195039, abcam], anti-PKCβII [ab32026, abcam], anti-PKCγ [402 ab131222, abcam], anti-PKCδ [9616, Cell signaling], anti-PKCε [ab124806, abcam], anti-PKCμ [2052, Cell signaling], anti-PKCθ [ab110728, abcam], anti-PKCζ [9368, Cell signaling], anti-NPM [ab52644, abcam], anti-RPSA [ab133645, abcam], anti-SET [ab176567, abcam], anti-EEF1D [ab88868, abcam], anti-GAPDH [2118, Cell signaling], and anti-β-tubulin [2146, Cell signaling])) overnight. The membrane was then washed with TBST and incubated with secondary antibodies (anti-rabbit IgG, HRP linked [7074, Cell signaling]) for 1 h at room temperature. The membranes were developed with Amersham ECL prime western blotting detection reagent [GE Healthcare], and detected by ChemiDoc [Bio-Rad]. The relative band intensities to 37° C. was calculated within each of drug-treated group and control group each for the CETSA curves. For ITDR curves, the relative band intensities to DMSO group was calculated.

nucleophosmin (NPM) = biological target: T4, nucleophosmin (NPM) (Homo sapiens, UniProt P06748); experiment: CETSA and isothermal dose-response, NPM; type: cell-based; conditions: HEK293T cells, compared to β-tubulin and GAPDH
T4 construct: hordenine with HEK293T cells at 20 μM for 3 h; endogenous in cells; host or cells: HEK293T
T4 sequence (P06748 whole entry): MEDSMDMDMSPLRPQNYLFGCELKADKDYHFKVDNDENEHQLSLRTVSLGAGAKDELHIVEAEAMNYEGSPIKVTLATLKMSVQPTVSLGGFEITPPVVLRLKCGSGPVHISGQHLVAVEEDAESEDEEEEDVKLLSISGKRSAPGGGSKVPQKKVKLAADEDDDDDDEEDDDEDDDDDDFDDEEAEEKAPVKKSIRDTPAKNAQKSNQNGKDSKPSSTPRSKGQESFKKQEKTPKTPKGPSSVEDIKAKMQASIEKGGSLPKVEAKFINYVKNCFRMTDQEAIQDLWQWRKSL
Method: as §2

protein SET (SET) = biological target: T5, protein SET (SET) (Homo sapiens, UniProt Q01105); experiment: CETSA, SET; type: cell-based; conditions: HEK293T cells
T5 construct: hordenine with HEK293T cells at 20 μM for 3 h; endogenous in cells; host or cells: HEK293T
T5 sequence (Q01105 whole entry): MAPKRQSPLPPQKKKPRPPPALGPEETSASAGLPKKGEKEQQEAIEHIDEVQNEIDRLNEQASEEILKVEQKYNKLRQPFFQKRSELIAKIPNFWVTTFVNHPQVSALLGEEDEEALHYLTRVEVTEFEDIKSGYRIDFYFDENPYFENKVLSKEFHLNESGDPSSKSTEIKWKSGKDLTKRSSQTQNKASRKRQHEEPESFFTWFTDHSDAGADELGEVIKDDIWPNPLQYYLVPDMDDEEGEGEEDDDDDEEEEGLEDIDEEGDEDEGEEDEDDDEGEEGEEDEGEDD
Method: as §2

[5] = biological target: T6, 40S ribosomal protein SA (RPSA) (Homo sapiens, UniProt P08865); experiment: CETSA, RPSA; type: cell-based; conditions: HEK293T cells
T6 construct: hordenine with HEK293T cells at 20 μM for 3 h; endogenous in cells; host or cells: HEK293T
Method: as §2

Structure (SMILES)	location of PKCα (soluble / insoluble fraction) (PKCα [1])	isothermal dose-response of PKCα (PKCα [2])	upregulating efficacy on luciferase gene translation diminished after NPM depletion (NPM) [%]	effect on translation of the luciferase reporter gene [3]	thermal stability shift of EEF1D (CETSA) [4]	thermal stability shift of NPM (CETSA) (nucleophosmin (NPM))	thermal stability shift of SET (CETSA) (protein SET (SET))	thermal stability shift of RPSA (CETSA) [5]
CCC/C=C/C=C/C(=O)O[C@H]1/C(=C/C(=O)OC)C[C@H]2C[C@H]([C@@H](C)O)OC(=O)C[C@H](O)C[C@@H]3C[C@H](OC(C)=O)C(C)(C)[C@](O)(C[C@@H]4C/C(=C/C(=O)OC)C[C@H](/C=C/C(C)(C)[C@]1(O)O2)O4)O3 [bryostatin 1]	moved to insoluble fraction	dose-dependent thermal destabilization						
CN(C)CCc1ccc(O)cc1 [hordenine, N,N-dimethyltyramine]			72.7	increase the translation	did not	significant thermal stabilization	did not	did not
